# According to US5663186A, “Treatment of atherosclerosis with angiotensin II receptor blocking imidazoles” (Merck & Co., Inc., priority 1995, dated 1997):
# Assays:
# [1] = test system: patients with mild to moderate hypertension; assay: Clinical study: sitting diastolic blood pressure; type: in vivo; conditions: for Trough Sitting Diastolic Blood Pressure, Mean (on treatment) / Mean Change in Trough Sitting Diastolic Blood Pressure / Change in Trough Sitting Diastolic Blood Pressure, adj. mean: trough (24 hours postdose)
# Experimental: Sitting Diastolic Blood Pressure Results At Week 6 and 12
# The changes from baseline blood pressure (primary=trough sitting diastolic blod pressure at weeks 6 and 12) were evaluated using a least squares analysis of the means based upon an analysis of covariance (covariate=baseline blood pressure)for a randomized block (block=investigator site) design. An "all-patients-treated" and a "per-protocol" analysis were performed. The study was designed to detect a 5 mmHg difference in mean change between treatments with 95% probability based upon a group size of 86 with an α of 0.05 (two-sided) and a standard deviation of 9 mmHg.
# [2] = test system: patients with mild to moderate hypertension; assay: Clinical study: LDL cholesterol; type: in vivo
# Experimental: (§1) The total, HDL, LDL and VLDL cholesterol levels were measured using the procedures described below:
# The low density lipoprotein cholesterol is computed by subtracting from the cholesterol value determined above one-fifth of the triglycerides and the HDL cholesterol value determined above. This LDL computation is valid only if the triglyceride level is less than 400 mg/dL.
# [3] = test system: Renal Hypertensives Rats; assay: Antihypertensive effects in renal hypertensive rats (left renal artery ligation); type: in vivo, rat
# Experimental: This procedure increases blood pressure by increasing renin production with consequent elevation of AII levels. Compounds are administered orally at 100 mg/kg and/or intravenously via a cannula in the jugular vein at 10 mg/kg. Arterial blood pressure is continuously measured directly through a carotid artery cannula and recorded using a pressure transducer and a polygraph. Blood pressure levels after treatment are compared to pretreatment levels to determine the antihypertensive effects of the compounds (See Table 1).
# Compound listed in Table 2 was tested in the same manner as described for Table 1, except that in the test for antihypertensive effects in renal hypertensive rats, the compounds were administered orally at 30 mg/kg and intravenously at 3 mg/kg.
# [4] = test system: patients with mild to moderate hypertension; assay: Clinical study: total cholesterol; type: in vivo
# Experimental: as §1
# Cholesterol esters in the sample are hydrolyzed by cholesterol esterase to cholesterol and free fatty acids. The cholesterol produced in the reaction plus the free cholesterol present in the sample, are oxidized by cholesterol oxidase to form cholesten-3-one and hydrogen peroxide. Peroxidase catalyzes the hydrogen peroxide oxidation and 4-aminoantipyrine(4-AAP) and phenol with subsequent coupling to 3,4-dichlorophenol. The end product is a quinoneimine dye which is read at a primary wavelength of 520 nm. The color formation is proportional to the concentration of cholesterol present. This absorbance value is then compared to the absorbance by a known calibrator. The result is then printed out directly in mg/dL.
# [5] = test system: AT1 receptor subtype; conditions: cited from earlier work
# [6] = test system: patients with mild to moderate hypertension; assay: Clinical study: plasma renin activity; type: in vivo
# Experimental: After six weeks the non-responders were titrated to a 100 mg oral dose administered once daily.
# [7] = test system: patients with mild to moderate hypertension; assay: Clinical study: HDL cholesterol; type: in vivo
# Experimental: as §1
# High Density Lipoprotein Cholesterol
# The high density lipoprotein (HDL) cholesterol was measured by analyzing a 2.0 mL volume of non-hemolyzed serum or EDTA plasma(heparinized plasma is not recommended), which has been separated from the cells within 30 minutes of collection. A fasting specimen of at least 12 hours is required for accurate interpretation. In most persons, the plasma cholesterol level is affected very little by a recent meal. However, in some persons an increase of up to 100 mg/dL may be induced by a recent meal. The level of cholesterol in plasma is slightly lower than serum (approximately 3%) due to the fact that the liquid EDTA dilutes the plasma slightly and it somotically draws water out of the erythrocytes.
# The method used for in this procedure utilizes the precipitating properties of phosphotungstate. Addition of the HDL precipitating reagent lowers the pH of the sample to the isoelectric point for the LDL and VLDL. LDL and VLDL molecules at pH 5.7 have overall electrical neutrality.
# Phosphotungstate then selectively forms insoluble ligand complexes with LDL and VLDL. Differences in ionic strength forcefully precipitate these complexes. Centrifugation removes them, leaving the HDL fraction in the supernatant. The resulting supernatant cholesterol (HDL) is then assayed for cholesterol. Cholesterol esters in the sample are hydrolyzed by cholesterol esterase to cholesterol and free fatty acids. The cholesterol produced in the reaction plus the free cholesterol present in the sample, are oxidized by cholesterol oxidase to form cholesten-3-one and hydrogen peroxide. Peroxidase catalyzes the hydrogen peroxide oxidation and 4-aminoantipyrine (4-AAP) and phenol with subsequent coupling to 3,4-dichlorophenol.
# The end product is a quinoneimine dye which is read at a primary wavelength of 520 nm. The color formation is proportional to the concentration of cholesterol present. This absorbance value is then compared to the absorbance by a known calibrator. The result is then printed out directly in mg/dL.
compound,measurement,setting,value
"CCCCc1nc(Cl)c(CO)n1Cc1ccc(-c2ccccc2-c2nnn[nH]2)cc1.[K] [Losartan, 2-n-butyl-4-chloro-1-[(2'-(tetrazol-5-yl)-1,1'-biphenyl-4-yl)-methyl]-1H-imidazole-5-methanol potassium salt]","Peak Sitting Diastolic Blood Pressure, Mean (on treatment)","[1]; peak (6 hours postdose), 12 wk, 50/100 mg, N 113, all-patients-treated",89.1 mmHg
same,Mean Change in Peak Sitting Diastolic Blood Pressure,"[1]; peak (6 hours postdose), 12 wk, 50/100 mg, N 113, baseline 99.2",-10.1 mmHg
same,"Change in Peak Sitting Diastolic Blood Pressure, adj. mean","[1]; peak (6 hours postdose), 12 wk, 50/100 mg, N 113, least squares",-10.1 mmHg
same,"Trough Sitting Diastolic Blood Pressure, Mean (on treatment)","[1]; 6 wk, 50 mg, N 125, all-patients-treated",95.3 mmHg
same,Mean Change in Trough Sitting Diastolic Blood Pressure,"[1]; 6 wk, 50 mg, N 125, baseline 102.1",-6.9 mmHg
same,"Change in Trough Sitting Diastolic Blood Pressure, adj. mean","[1]; 6 wk, 50 mg, N 125, least squares",-6.9 mmHg
same,"Trough Sitting Diastolic Blood Pressure, Mean (on treatment)","[1]; 6 wk, 50/100 mg, N 118, all-patients-treated",94.3 mmHg
same,Mean Change in Trough Sitting Diastolic Blood Pressure,"[1]; 6 wk, 50/100 mg, N 118, baseline 102.2",-7.9 mmHg
same,"Change in Trough Sitting Diastolic Blood Pressure, adj. mean","[1]; 6 wk, 50/100 mg, N 118, least squares",-7.9 mmHg
same,"Trough Sitting Diastolic Blood Pressure, Mean (on treatment)","[1]; 12 wk, 50 mg, N 125, all-patients-treated",94.2 mmHg
same,Mean Change in Trough Sitting Diastolic Blood Pressure,"[1]; 12 wk, 50 mg, N 125, baseline 102.1",-7.9 mmHg
same,"Change in Trough Sitting Diastolic Blood Pressure, adj. mean","[1]; 12 wk, 50 mg, N 125, least squares",-7.9 mmHg
same,"Trough Sitting Diastolic Blood Pressure, Mean (on treatment)","[1]; 12 wk, 50/100 mg, N 118, all-patients-treated",93.6 mmHg
same,Mean Change in Trough Sitting Diastolic Blood Pressure,"[1]; 12 wk, 50/100 mg, N 118, baseline 102.2",-8.6 mmHg
same,"Change in Trough Sitting Diastolic Blood Pressure, adj. mean","[1]; 12 wk, 50/100 mg, N 118, least squares",-8.6 mmHg
same,"LDL CHOLESTEROL, TREATMENT MEAN","[2]; LOS 50, week 12, N 102",123.5 mg/dL
same,"LDL CHOLESTEROL, CHANGE MEAN","[2]; LOS 50, week 12, N 102, change from baseline 127.7",-4.2 mg/dL
same,"LDL CHOLESTEROL, TREATMENT MEAN","[2]; LOS 50/100, week 12, N 95",117.9 mg/dL
same,"LDL CHOLESTEROL, CHANGE MEAN","[2]; LOS 50/100, week 12, N 95, change from baseline 126.3",-8.4 mg/dL
same,"Antihypertensive Effects in Renal Hypertensives Rats, Intravenous Activity","[3]; intravenous, 10 mg/kg or less",+ (Significant decrease in blood pressure at 10 mg/kg or less)
same,"Antihypertensive Effects in Renal Hypertensives Rats, Oral Activity","[3]; oral, 100 mg/kg or less",+ (Significant decrease in blood pressure at 100 mg/kg or less)
same,"TOTAL CHOLESTEROL, CHANGE MEAN","[4]; LOS 50, week 12, N 107, change from baseline 211.1",-3.9 mg/dL
same,"TOTAL CHOLESTEROL, TREATMENT MEAN","[4]; LOS 50, week 12, N 107, oral once daily",207.3 mg/dL
same,"TOTAL CHOLESTEROL, TREATMENT MEAN","[4]; LOS 50/100, week 12, N 106",204.8 mg/dL
same,"TOTAL CHOLESTEROL, CHANGE MEAN","[4]; LOS 50/100, week 12, N 106, change from baseline 212.6",-7.9 mg/dL
same,"AII antagonism, oral activity",[5],orally active A II antagonists
same,"PLASMA RENIN ACTIVITY, TREATMENT MEAN","[6]; LOS 50, week 12, N 99",2.889 ng/mL/h
same,"PLASMA RENIN ACTIVITY, CHANGE MEAN","[6]; LOS 50, week 12, N 99, change from baseline 1.300",1.589 ng/mL/h
same,"PLASMA RENIN ACTIVITY, TREATMENT MEAN","[6]; LOS 50/100, week 12, N 96",3.724 ng/mL/h
same,"PLASMA RENIN ACTIVITY, CHANGE MEAN","[6]; LOS 50/100, week 12, N 96, change from baseline 1.473",2.251 ng/mL/h
same,"HDL CHOLESTEROL, TREATMENT MEAN","[7]; LOS 50, week 12, N 107",52.1 mg/dL
same,"HDL CHOLESTEROL, CHANGE MEAN","[7]; LOS 50, week 12, N 107, change from baseline 52.5",-0.4 mg/dL
same,"HDL CHOLESTEROL, TREATMENT MEAN","[7]; LOS 50/100, week 12, N 106",52.3 mg/dL
same,"HDL CHOLESTEROL, CHANGE MEAN","[7]; LOS 50/100, week 12, N 106, change from baseline 52.9",-0.5 mg/dL
